# Source: US20250092058A1 (priority 2018, published 2025)
# How the values were obtained:
# [1] = tested on: CD44 stem cell marker-positive PANC1 cells; experiment: CD44-positive PANC1 colony formation; assay type: cell-based, human
# Method: CD44 positive cell sorting and CD44-positive cell colony formation. CD44 positive (CD44+) cells were purified (sorted out) using fluorescence activated cell sorting (FACS). FITC-conjugated mouse anti-human CD44 was used in FACS purification of CD44+ PANC1 cells. Briefly, PANC1 cells were harvested by using 0.25% trypsin/0.02% EDTA. After re-suspension of the cells in cell-culture media, the cells were counted and washed in PBS with 2% FBS and collected by centrifugation. Add 10 μL FITC-CD44 antibody to 1 ml PBS containing 1 million cells and 2% of FBS for 30 minutes on ice. Following the antibody labeling, PANC1 cells were washed in PBS with 2% BSA before flow cytometric analysis was carried out on a BD FACSAria™ III cell sorter (BD Science, USA). […] Colonies were fixed, stained with crystal violet solution and images were taken before counting colonies on day 12. The experimental results were expressed as the mean±SD. The statistical significance of differences was determined by Student's t-test between two groups.
# To further confirm these findings, we alternatively used the typical matrigel-based CSC sphere formation assay which is know to more closely mimic in vivo situations. In this assay only drug resistant stem-like cancer cells are able to form spheres. […] We performed colony formation of CD44 stem cell marker-positive cells using the stem-cell culture condition. […]
# FL118 MTD in SCID mice = assay type: in vivo
# HeLa = assay type: cell-based, human; details: Table 13; MTT; HeLa cervical cancer
# PANC1 and Mia2 cells = experiment: Western blots of caspase-3 activation and PARP cleavage; assay type: cell-based, human; details: 24 h, 10-500 nM
# Method: Western blotting/Immunoblotting. […] Fifty μg total protein from each sample were heated at 95° C. for 5 minutes after mixing with equal volume of 2×SDS loading buffer. Samples were separated on 12-15% SDS-polyacrylamide gel electrophoresis (SDS-PAGE) gels and electrotransferred to Pure Nitrocellulose Membranes (Bio-Rad, Hercules, CA). […] Next, the membrane was incubated with different primary antibodies in TBS-T containing 5% BSA overnight at 4° C. in the range of dilutions from 1:500 to 1:2000. After washing with TBS-T, the membrane was incubated in TBS-T buffer containing 5% skim milk and corresponding secondary antibody (1:5000) for 45-60 minutes at room temperature with shaking. Protein of interest was detected using Western Lightning Plus—ECL (Perkin Elmer, Waltham, MA) and visualized by various times (3-120 seconds) of exposure. Actin was detected as the internal control to normalize total protein loading for each sample.
# (§1) Next, we determined whether FL118-mediated inhibition of antiapoptotic proteins and induction of pro-apoptotic proteins shown in FIG. 1 would be accompanied by induction of apoptosis and cell killing.
# CRC PDX27454 tumors = details: spray-dried FL118-HPβCD powder in saline with 5% PG, p.o. weekly ×4, half MTD
# Method: Colorectal cancer (CRC) patient-derived xenograft (PDX) models were used to evaluate their in vivo antitumor activity. […] Treatments were administered weekly for four weeks on days 0, 7, 14 and 21 and tumor volumes and individual body weights were monitored.
# Human xenograft tumors used. In this invention disclose, human SW620 (colorectal), HT29 (colorectal) and HT-3 (retinoblastoma) cancer cell line-established xenograft tumors were used. Human tumor cell line-derived xenograft tumors are initially established by subcutaneously injecting 2-5×10^6 cultured cancer cells in a volume of 100-150 p L medium into the flank area of severe combined immunodeficiency (SCID) mice. The derived tumors are then passed a couple of generations in mice by transplanting 30-50 mg non-necrotic tumor mass via a trocar for experiments or maintenance. […] PDX tumors were originally established on severe Combined Immunodeficiency (SCID) mice from pancreatic and colorectal cancer patient tumor tissues obtained from metastatic sites of the disease in the clinic.
# Specifically, PDX tumors were originally established on severe Combined Immunodeficiency (SCID) mice from pancreatic and colorectal cancer patient tumor tissues obtained from metastatic sites of the disease in the clinic. […] The vehicle is the same think aqueous suspension without drug. Experimental SCID mice were subcutaneously implanted with 30-40 mg individual PDX tumors (isolated from maintenance mice) at the flank area for PDX27454 of SCID mice. Treatment with vehicle or a drug of 7Q-series (2) was initiated 7-14 days after the transplanted tumors reached 100-200 mm^3 (designated day 0). The animal model of PDX tumors was orally treated weekly for 4 times (one cycle/course, as shown with black arrows) or only one time drug administration.
# HepG2 = assay type: cell-based, human; details: Table 13; MTT; HepG2 liver cancer
# [2] = Oral PK in SW620/HT29 tumor-bearing SCID mice; details: 1.5 mg/kg oral, HPβCD aqueous suspension
# Method: Tumor tissues and blood samples were collected at a series of time points of 30 minutes, 1 hour, 4 hours, 12 hours and 24 hours. Each tumor tissue was collected in a tube and immediately frozen with liquid nitrogen; each blood sample was collected in a Li-Heparin LH/1.3 tube ([sequence]), and plasma was recovered by centrifugation (1500 rpm×2 minutes). The collected plasma from each blood sample was transferred into a new tube and immediately frozen in liquid nitrogen. Liquid nitrogen-frozen specimens were then transferred to an −80° C. freezer for analysis.
# Drug in plasma is extracted with acidified methanol. An 800 μL aliquot of ice-cold acidified methanol is added to 200 μL plasma and vortexed for 15 sec. […] An 800 μL aliquot of ice-cold acidified methanol is added to 200 μL homogenized tissue and then vortexed for 1 min. The samples are then centrifuged at 13,000 rpm for 5 min. and the supernatant is transferred to a clean 13×100 mm glass tube. Samples are dried under vacuum and stored at −20° C. until analysis. […] Analysis is carried out using an Acquity UPLC system with Fluorescence detection interfaced with Empower software. […] The fluorescence detector is set at the following Excitation (Ex) and Emissions (Em) wavelengths: Ex 370 nm Em 510 nm. […] QC samples are analyzed with each curve.
# PANC1, Mia2, BxPC-3 = experiment: MTT viability of pancreatic cancer cells; assay type: cell-based, human; details: 72 h, nM level
# Method: MTT assays. […] Each experiment was performed at least in triplicate.
# as §1
# [3] = BALB/cj mice, FL118 MTD 10 mg/kg oral qw×4
# [4] = BALB/cj mouse serum, FL118 MTD 10 mg/kg oral qw×4
smiles,measurement,setting,value
"CC[C@@]1(O)C(=O)OCc2c1cc1n(c2=O)Cc2cc3cc4c(cc3nc2-1)OCO4 [FL118, 10,11-methylenedioxy-camptothecin]",tolerability,10 mg/kg oral qw×4,well tolerated
same,BASO,[3],0 K/μL
same,EOS,[3],0.01-0.1 K/μL
same,HCT,[3],26.1-30.9%
same,HGB,[3],8.9 to 10.8 g/dL
same,LYM,[3],0.06-0.17 K/μL
same,MCH,[3],14.8 to 15.3 pg
same,MCHC,[3],33.7 to 36 g/dL
same,MCV,[3],41.9 to 43.9 fL
same,MONO,[3],0.03-0.12 K/μL
same,MPV,[3],8.1 to 8.6 fL
same,NEUT,[3],0.03-0.5 K/μL
same,PDW,[3],13.8 to 14.4 fL
same,PLT,[3],487-1004 K/μL
same,RBC,[3],6.01-7.04 M/μL
same,RDW-SD,[3],23 to 24.8 fL
same,RET,[3],0.67-4.49 K/μL
same,WBC,[3],0.33-0.6 K/μL
same,ALB,[4],1.7 to 2.2 g/dL
same,ALP,[4],52-105 U/L
same,ALT,[4],33-58 U/L
same,BUN,[4],16 to 19 mg/dL
same,CHOL,[4],91 to 109 mg/dL
same,CREA,[4],≤0.1 mg/dL
same,Ca,[4],8.1 to 9.4 mg/dL
same,GLU,[4],87 to 185 mg/dL
same,PHOS,[4],10 to 13.3 mg/dL
same,TBIL,[4],≤0.1 to 0.3 mg/dL
same,TP,[4],3.4 to 4.1 g/dL
same,body weight loss,≥12.5 mg/kg oral qw×4,> 20%
same,colony formation,[1]; 1 nM,significantly inhibited colony formation
same,colony formation,[1]; 10 and 100 nM,completely eliminate colony formation
same,maximum tolerated dose (MTD),"FL118 MTD in SCID mice; oral formulation, tumor-bearing SCID mice, qw×4",10 mg/kg
same,MTD,"FL118 MTD in SCID mice; oral, q1d×5 and q2d×5",~1.5 mg/kg
same,MTD,"FL118 MTD in SCID mice; two doses in SCID mice, estimated",12 mg/kg/dose
same,IC50,HeLa,34.7 ± 9.9 nM
same,caspase-3 activation and PARP cleavage,PANC1 and Mia2 cells,strongly induces caspase-3 activation and PARP cleavage
same,antitumor activity,CRC PDX27454 tumors,great antitumor activity
same,toxicity (mouse body weight changes),CRC PDX27454 tumors,no toxicity at all
same,IC50,HepG2,68.5 ± 6.7 nM
same,concentration in tumor versus serum,[2],many folds higher than those in serum
same,pancreatic cancer cell viability,"PANC1, Mia2, BxPC-3",effectively inhibited pancreatic cancer cell viability
